Molecular target: human NTSR1 (Homo sapiens, UniProt P30989)
Sequence (P30989 whole entry): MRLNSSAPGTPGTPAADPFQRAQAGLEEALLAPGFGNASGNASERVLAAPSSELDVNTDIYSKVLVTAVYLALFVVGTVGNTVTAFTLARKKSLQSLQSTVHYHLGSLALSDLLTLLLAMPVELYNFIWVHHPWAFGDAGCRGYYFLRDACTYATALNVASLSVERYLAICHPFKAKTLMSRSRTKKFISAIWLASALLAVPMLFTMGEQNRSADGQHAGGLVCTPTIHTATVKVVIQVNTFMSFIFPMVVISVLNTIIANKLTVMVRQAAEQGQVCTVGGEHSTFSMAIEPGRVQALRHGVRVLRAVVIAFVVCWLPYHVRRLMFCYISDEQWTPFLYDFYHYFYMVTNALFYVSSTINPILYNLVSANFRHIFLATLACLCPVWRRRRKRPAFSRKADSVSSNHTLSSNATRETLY

Question: For murine transferrin [mTf], which IP1 accumulation is on record?
Answer: The IP1 accumulation was “not”.
